# Reference: US7485623B2 (priority 2002, dated 2009)
# Experiments:
# [1] = oral tamoxifen; cited from earlier work
# rat liver = details: cited from earlier work
# [2] = tested on: p53(−) normal human mammary epithelial cells; details: cited from earlier work
# estrone sulphatase = biological target: T1, estrone sulphatase (Homo sapiens, UniProt P08842); details: mammary cancer cell lines; cited from earlier work
# T1 construct: estrone sulphatase activity in mammary cancer cell lines
# T1 sequence (P08842 22-583): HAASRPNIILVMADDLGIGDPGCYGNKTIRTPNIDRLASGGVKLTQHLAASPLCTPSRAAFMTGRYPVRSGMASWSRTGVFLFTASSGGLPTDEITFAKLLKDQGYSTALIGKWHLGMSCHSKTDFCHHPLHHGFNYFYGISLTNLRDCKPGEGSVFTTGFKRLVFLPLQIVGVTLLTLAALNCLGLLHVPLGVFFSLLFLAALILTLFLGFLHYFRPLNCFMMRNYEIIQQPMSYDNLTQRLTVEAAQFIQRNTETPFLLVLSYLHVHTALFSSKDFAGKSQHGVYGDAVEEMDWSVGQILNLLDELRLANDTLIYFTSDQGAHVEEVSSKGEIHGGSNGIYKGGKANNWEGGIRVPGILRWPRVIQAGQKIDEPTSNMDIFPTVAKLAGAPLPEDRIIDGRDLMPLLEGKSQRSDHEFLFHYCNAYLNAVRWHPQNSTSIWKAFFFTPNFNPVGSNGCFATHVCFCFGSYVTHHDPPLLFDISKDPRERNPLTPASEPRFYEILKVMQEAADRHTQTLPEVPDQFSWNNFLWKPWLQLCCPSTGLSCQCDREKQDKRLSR
# breast density = details: cited from earlier work
# [3] = Group 2 (0.5 mg/day gel), seventh day; Group 1 (oral tamoxifen), fifth day; cited from earlier work
# [4] = Example 1: radioactivity in blood and urine after percutaneous [3H]-labeled drug; details: for share of radioactivity in blood: 24 hours after percutaneous [3H]-4-hydroxy tamoxifen
# Description: (§1) The patients received [^3H]-labeled drug applied directly on the affected breasts at specified intervals ranging from 12 hours to 7 days before surgery to excise diseased tissue. Breast tissue from three regions: the tumor, tissue immediately surrounding the tumor, and normal tissue, was excised and immediately frozen in liquid nitrogen. Additionally, plasma and urine samples were obtained at scheduled intervals and frozen until analysis.
# [5] = Example 1: radioactivity and metabolites in breast tissue after percutaneous [3H]-labeled drug
# Description: as §1
# [6] = topical application
# [7] = Example 3: plasma pharmacokinetics of 4-hydroxy tamoxifen gel in healthy premenopausal women; details: for AUC0-24, Mean ± SD / Cav = AUC0-24/24, Mean ± SD / tmax, Mean ± SD / Cmax, Mean ± SD / t1/2 (range): last administration; for Cmax, Mean ± SD: day 25 of second cycle
# Description: Each participant applied the gel daily for the duration of two menstrual cycles.
# At the end of a menstrual cycle, each patient received a single dose, after which serial blood samples were collected at 0, 0.5, 1, 1.5, 2, 3, 4, 6, 12, 18, 24, 36, 48, and 72 hours.
# On the first day of the following menstruation, treatment, which consisted of daily application of the gel over two menstrual cycles, began. Blood samples were collected 24 hours following the morning application of gel on days 7, 20 and 25 of the first and second cycles. On the last day of administration, day 25 of the second menstrual cycle, serial blood samples were collected prior to application and at 0.5, 1, 1.5, 2, 3, 4, 6, 12, 18, 24, 36, 48, and 72 hours after application of the gel.
# estrogen receptors = details: in vitro; cited from earlier work
# [8] = 36 hr after percutaneous trans-[3H]-4-hydroxy tamoxifen
# [9] = Day 4 after percutaneous trans-[3H]-4-hydroxy tamoxifen
# [10] = Day 7 after percutaneous trans-[3H]-4-hydroxy tamoxifen
# [11] = 12 hr after percutaneous trans-[3H]-4-hydroxy tamoxifen
# [12] = 24 hr after percutaneous trans-[3H]-4-hydroxy tamoxifen
# [13] = 0.5 mg/day (n = 12), gel 20 mg/100 g
# [14] = 1 mg/day (n = 8), gel 20 mg/100 g
# [15] = 1 mg/day (n = 12), gel 57 mg/100 g
# [16] = 2 mg/day (n = 12), gel 57 mg/100 g
smiles,measurement,setting,value
CC/C(=C(\c1ccccc1)c1ccc(OCCN(C)C)cc1)c1ccccc1 [tamoxifen],side effects reported by patients,[1],"hot flashes, vaginal discharge, depression, amenorrhea, and nausea"
same,rat liver carcinogenicity,rat liver,potent rat liver carcinogen
same,initiation of apoptosis,[2],initiates apoptosis
same,effect on estrone sulphatase activity,estrone sulphatase,little or no effect
same,women with decreased breast parenchyma,breast density; 20 mg/day after surgery for breast cancer (Son et al.),59.8%
same,change of mammographic pattern,"breast density; contralateral breasts of postmenopausal breast cancer patients, 20 mg/day",significant change toward a less dense mammographic pattern
same,decrease of breast parenchyma in premenopausal women,"breast density; premenopausal women, 20 mg/day (Son et al.)",87%
same,side effects reported by one person,[3],hot flashes and mild vaginitis
"CC/C(=C(\c1ccccc1)c1ccc(OCCN(C)C)cc1)c1ccccc1 [[^3H]-tamoxifen, reference compound]",time of plateau of radioactivity in blood,[4]; percutaneous application,2 days
CC/C(=C(\c1ccccc1)c1ccc(OCCNC)cc1)c1ccccc1 [N-Desmethyl tamoxifen],% Metabolites in Breast Tissue,[5]; [8],<1%
same,% Metabolites in Breast Tissue,[5]; [9],<1%
same,% Metabolites in Breast Tissue,[5]; [10],3-4%
CC/C(=C(\c1ccc(O)cc1)c1ccc(OCCN(C)C)cc1)c1ccccc1 [Trans 4-hydroxy tamoxifen],percentage of radioactivity in breast tissue as isomer of 4-hydroxy tamoxifen,[5]; day 7,32%
CC(C)(c1ccc(O)cc1)c1ccc(O)cc1 [Bisphenol],share of radioactivity in blood,[4],11%
same,% Metabolites in Breast Tissue,[5]; [11],1%
same,% Metabolites in Breast Tissue,[5]; [12],2%
same,% Metabolites in Breast Tissue,[5]; [8],3%
same,% Metabolites in Breast Tissue,[5]; [9],8%
same,% Metabolites in Breast Tissue,[5]; [10],8%
"CC/C(=C(\c1ccc(O)cc1)c1ccc(OCCN(C)C)cc1)c1ccccc1 [4-hydroxy tamoxifen, 1-[4-(2-N-dimethylaminoethoxy)phenyl]-1-(4-hydroxyphenyl)-2-phenylbut-1-(Z)-ene]",share of radioactivity in blood,[4],68%
same,urinary elimination compared to percutaneous tamoxifen,[4]; percutaneous administration,Peak urinary elimination occurred at a later time
same,systemic effects,[6],no detectable laboratory or clinical evidence of systemic effects
same,"AUC0-24, Mean ± SD",[7]; [13],0.2563 ng·h/mL
same,"Cav = AUC0-24/24, Mean ± SD",[7]; [13],0.0107 ± 0.0085 ng/mL
same,"tmax, Mean ± SD",[7]; [13],40 ± 81 h
same,"Cmax, Mean ± SD",[7]; [13],0.017 ± 0.0085 ng/mL
same,"AUC0-24, Mean ± SD",[7]; [14],0.3009 ng·h/mL
same,"Cav = AUC0-24/24, Mean ± SD",[7]; [14],0.0125 ± 0.0079 ng/mL
same,"tmax, Mean ± SD",[7]; [14],24 ± 18 h
same,"Cmax, Mean ± SD",[7]; [14],0.021 ± 0.014 ng/mL
same,"AUC0-24, Mean ± SD",[7]; [15],0.619 ± 0.466 ng·h/mL
same,"Cav = AUC0-24/24, Mean ± SD",[7]; [15],0.0258 ± 0.0194 ng/mL
same,t1/2 (range),[7]; [15],(58-118) hr
same,"tmax, Mean ± SD",[7]; [15],12.8 ± 14.9 h
same,"Cmax, Mean ± SD",[7]; [15],0.0351 ± 0.0224 ng/mL
same,"AUC0-24, Mean ± SD",[7]; [16],0.998 ± 0.653 ng·h/mL
same,"Cav = AUC0-24/24, Mean ± SD",[7]; [16],0.0416 ± 0.0272 ng/mL
same,t1/2 (range),[7]; [16],(49-101) hr
same,"tmax, Mean ± SD",[7]; [16],11.8 ± 12.3 h
same,"Cmax, Mean ± SD",[7]; [16],0.0516 ± 0.0317 ng/mL
same,detectability in plasma after the last gel application,[7]; in vivo,remained detectable 72 hours after the last gel application
same,exposure versus dose,"[7]; topical application, 0.5, 1, and 2 mg",increases with dose
same,effect on estrone sulphatase activity,estrone sulphatase,significant inhibitory effect
same,% Metabolites in Breast Tissue,[5]; [11],97%
same,% Metabolites in Breast Tissue,[5]; [12],94%
same,% Metabolites in Breast Tissue,[5]; [8],78%
same,% Metabolites in Breast Tissue,[5]; [9],70%
same,% Metabolites in Breast Tissue,[5]; [10],65%
same,metabolism in intracellular sites of breast tissue,[5]; cytosolic and nuclear fractions,remained unmetabolized except for limited isomerization from the trans to the cis form
same,subcellular distribution in breast tissue,[5]; percutaneous application,concentrated predominantly in the cytosolic and nuclear fractions of breast tissue
same,retention in the breast,[5]; percutaneous application of [3H]-labeled drug,approximately 4 days
same,"binding affinity for estrogen receptors, compared with estradiol",estrogen receptors,a binding affinity similar to estradiol
same,"potency as binding affinity to estrogen receptors, compared with tamoxifen",estrogen receptors,more potency than tamoxifen
CCC(=C(c1ccc(O)cc1)c1ccc(OCCNC)cc1)c1ccccc1 [N-Desmethyl-4-Hydroxy Tamoxifen],share of radioactivity in blood,[4],18%
same,% Metabolites in Breast Tissue,[5]; [11],2%
same,% Metabolites in Breast Tissue,[5]; [12],4%
same,% Metabolites in Breast Tissue,[5]; [8],14%
same,% Metabolites in Breast Tissue,[5]; [9],20%
same,% Metabolites in Breast Tissue,[5]; [10],16%
